Consider eleven molecules from patent publication US11518758B2, “Heteroarylaminopyrimidine amide autophagy inhibitors and methods of use thereof” (Deciphera Pharmaceuticals, LLC, priority 2019, dated 2022).

Assay [1] has as its system phospho-Serine 318 ATG13 (pATG13) in T24 cells. In words: pATG13 levels of mutant HRas T24 cells after treatment with ULK inhibitors in combination with trametinib (ELISA). The assay is classed as cell-based, human. To be noted: with 250 nM trametinib. The protocol:
Example 181. pATG13 Levels of Mutant HRas T24 Cells after Treatment with ULK Inhibitors in Combination with Trametinib
T24 human urinary bladder cancer cells (25000 cells/well) were added to a 96-well tissue-culture treated plate in 100 μL of pre-warmed DMEM medium supplemented with 10% characterized fetal bovine serum (Invitrogen, Carlsbad, Calif.), 100 units/mL penicillin G, and 100 μg/mL streptomycin and allowed to grow overnight at 37° C., 5% CO2, and 95% humidity. The following day, 100 μL of media containing trametinib or DMSO as a control was added to wells. The final concentration of trametinib in wells was 250 nM. A dose response of a test compound (0.5 μL per well) was added. DMSO (0.5 μL) was added to control wells. The plate was briefly shaken to mix wells and then incubated at 37° C. overnight. The next day, the media was aspirated and cells were washed with Dulbecco's Phosphate Buffered Saline (Gibco). Cells were lysed using MPER lysis buffer (Pierce, Rockford, Ill.) containing Halt Phosphatase and Protease Inhibitors (Pierce, Rockford, Ill.) and Phosphatase inhibitor cocktail 2 (Sigma, St. Louis, Mo.) at 4° C. for 10 minutes with shaking.
Cellular levels of phospho-Serine 318 ATG13 (pATG13) were measured via an ELISA method. Total ATG13 Antibody (Cell Signaling Cat #13273) was used to coat the wells. The plate was incubated at 4° C. overnight and washed with ELISA wash buffer (Biolegend Cat #421601). The wells were then blocked with assay diluent (Biolegend Cat #421203) for 1 hour at room temperature. Plate wells were washed with ELISA wash buffer. Cell lysate was added to wells and incubated at room temperature for 2 hours. Plate wells were washed with ELISA wash buffer. Biotinylated pS318-ATG13 antibody (Rockland Immunochemicals Cat #600-401-C49) was diluted in assay diluent and added to each well and incubated at room temperature for 1 hour. Plate wells were washed with ELISA wash buffer. Streptavidin linked to horseradish peroxidase (Thermo Fisher Cat #21140) was diluted in assay diluent and added to each well and incubated at room temperature for 1 hour. Plate wells were washed with ELISA wash buffer. High sensitivity TMB substrate (Biolegend Cat #421101) was added to each well and incubated at room temperature for 20 minutes. The reaction was stopped with 2N Sulfuric Acid. The plate was analyzed at on a plate reader measuring absorbance at 450 nm and 540 nm (background). Signal was calculated by first subtracting the background absorbance at 540 nm from the absorbance at 450 nm for each well. Next, the background corrected absorbance at 450 nm from blank wells was subtracted from test wells. Data was compared to control wells to determine % ATG13 phosphorylation. GraphPad Prism was used to calculate IC50 values.
For orientation: An ELISA detects its analyte on a solid surface through an enzyme-linked reagent.

A further assay deals with T1, LRRK2 kinase (Homo sapiens, UniProt Q5S007).
T1 construct: purchased Thermo Fisher
T1 sequence (Q5S007 with tags, fused parts or gaps): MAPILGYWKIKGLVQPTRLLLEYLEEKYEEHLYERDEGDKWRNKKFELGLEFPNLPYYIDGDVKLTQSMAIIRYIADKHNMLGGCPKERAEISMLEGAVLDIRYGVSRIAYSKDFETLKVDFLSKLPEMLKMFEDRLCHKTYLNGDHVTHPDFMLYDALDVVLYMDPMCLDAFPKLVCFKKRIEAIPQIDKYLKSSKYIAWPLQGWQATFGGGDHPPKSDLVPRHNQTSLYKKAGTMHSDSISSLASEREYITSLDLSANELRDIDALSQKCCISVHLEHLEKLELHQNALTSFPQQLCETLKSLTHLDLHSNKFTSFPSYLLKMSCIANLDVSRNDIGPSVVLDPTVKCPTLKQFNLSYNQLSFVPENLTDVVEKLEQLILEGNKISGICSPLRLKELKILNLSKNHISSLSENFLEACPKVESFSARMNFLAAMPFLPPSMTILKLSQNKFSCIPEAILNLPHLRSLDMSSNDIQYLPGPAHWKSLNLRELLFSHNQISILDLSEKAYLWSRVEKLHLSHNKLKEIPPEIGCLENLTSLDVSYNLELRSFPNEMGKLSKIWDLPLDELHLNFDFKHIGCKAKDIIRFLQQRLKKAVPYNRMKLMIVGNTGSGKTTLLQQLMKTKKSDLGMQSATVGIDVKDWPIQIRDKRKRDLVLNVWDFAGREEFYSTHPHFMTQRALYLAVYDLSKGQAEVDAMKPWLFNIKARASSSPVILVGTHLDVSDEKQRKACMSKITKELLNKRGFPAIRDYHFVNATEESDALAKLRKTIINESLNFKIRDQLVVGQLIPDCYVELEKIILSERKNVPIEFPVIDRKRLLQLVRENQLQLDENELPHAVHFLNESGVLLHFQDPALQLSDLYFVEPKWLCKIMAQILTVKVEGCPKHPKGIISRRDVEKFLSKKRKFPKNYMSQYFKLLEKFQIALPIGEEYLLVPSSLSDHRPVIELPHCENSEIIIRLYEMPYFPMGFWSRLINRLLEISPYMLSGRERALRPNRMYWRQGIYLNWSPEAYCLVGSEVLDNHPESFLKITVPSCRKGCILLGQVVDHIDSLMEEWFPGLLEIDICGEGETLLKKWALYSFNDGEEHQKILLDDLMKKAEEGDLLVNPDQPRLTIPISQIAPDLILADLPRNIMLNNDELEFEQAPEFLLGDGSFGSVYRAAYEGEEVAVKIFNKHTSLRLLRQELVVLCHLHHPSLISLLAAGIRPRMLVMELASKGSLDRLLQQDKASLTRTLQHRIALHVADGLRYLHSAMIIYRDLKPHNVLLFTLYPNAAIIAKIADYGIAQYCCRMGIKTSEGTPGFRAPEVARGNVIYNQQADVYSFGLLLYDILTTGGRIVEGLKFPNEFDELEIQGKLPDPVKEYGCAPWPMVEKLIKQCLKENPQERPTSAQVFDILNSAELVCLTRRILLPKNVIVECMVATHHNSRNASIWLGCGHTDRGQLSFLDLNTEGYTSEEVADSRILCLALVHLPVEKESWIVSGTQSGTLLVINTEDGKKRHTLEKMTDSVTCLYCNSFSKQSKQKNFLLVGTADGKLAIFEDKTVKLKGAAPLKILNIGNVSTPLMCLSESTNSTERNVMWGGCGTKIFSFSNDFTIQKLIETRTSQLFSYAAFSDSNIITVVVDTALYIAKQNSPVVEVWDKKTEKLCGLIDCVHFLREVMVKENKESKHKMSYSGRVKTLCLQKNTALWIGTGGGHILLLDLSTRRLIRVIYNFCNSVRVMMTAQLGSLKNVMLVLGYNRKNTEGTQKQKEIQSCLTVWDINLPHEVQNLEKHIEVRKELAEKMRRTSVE
Nature of the assay: Biochemical assay for LRRK2 (coupled pyruvate kinase/lactate dehydrogenase assay). To be noted: 26.4 nM LRRK2 (residues 970-2528), 0.1 mM peptide substrate, 1 mM ATP.

The next assay has as its target T2, ULK1 kinase (Homo sapiens, UniProt O75385, E37A/K38A).
T2 construct: (residues 1-283; ID NO: 2); purchased Beryllium
T2 sequence (O75385 1-283 E37A/K38A): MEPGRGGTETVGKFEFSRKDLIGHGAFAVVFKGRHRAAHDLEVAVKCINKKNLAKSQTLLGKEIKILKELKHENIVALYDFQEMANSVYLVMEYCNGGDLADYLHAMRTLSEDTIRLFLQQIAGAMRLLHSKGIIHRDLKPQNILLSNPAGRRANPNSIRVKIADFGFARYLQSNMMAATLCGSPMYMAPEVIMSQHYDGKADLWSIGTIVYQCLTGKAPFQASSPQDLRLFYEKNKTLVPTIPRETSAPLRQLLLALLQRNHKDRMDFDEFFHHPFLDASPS
Nature of the assay: Biochemical assay for ULK1.3 (coupled pyruvate kinase/lactate dehydrogenase assay). To be noted: 0.1 nM ULK1 (from Beryllium), peptide substrate, 1 mM ATP. The protocol: Example 175. Biochemical Assay for ULK1.3
Activity of ULK1 kinase was determined spectroscopically using a coupled pyruvate kinase/lactate dehydrogenase assay that continuously monitors the ATP hydrolysis-dependent oxidation of NADH (e.g., Schindler et al. Science (2000) 289: 1938-1942). Assays were conducted in 384-well plates (100 uL final volume) using 0.1 nM ULK1 (from Beryllium), 0.075 mM peptide substrate (YANWLAASIYLDGKKK (SEQ ID NO: 5)), 1.5 units pyruvate kinase, 2.1 units lactate dehydrogenase, 1 mM phosphoenol pyruvate, 0.28 mM NADH and 1 mM ATP in assay buffer (100 mM Tris, pH 7.5, 15 mM MgCl2, 0.5 mM DTT, 0.004% (w/v) BSA, and 0.004% Triton X-100). Inhibition of ULK1 was measured by adding serial diluted test compound (final assay concentration of 1% DMSO). A decrease in absorption at 340 nm was monitored continuously for 6 hours at 30° C. on a multi-mode microplate reader (BioTek). The reaction rate was calculated using the 2-3 h time frame. The reaction rate at each concentration of compound was converted to percent inhibition using controls (i.e. reaction with no test compound and reaction with a known inhibitor) and IC50 values were calculated using software routines in Prism (GraphPad software).

For the molecule `Cc1nn(C2CCN(C)CC2)cc1Nc1ncc(C(F)(F)F)c(NCCCN2CCCCC2=O)n1` [Example 8], the figures for the 50% inhibitory concentration (IC50) (in assay [1]; on LRRK2 kinase) were 10 to 100 nM and 100 to 300 nM, respectively.

Turning to `Cc1nn(C2CCN(C)CC2)cc1Nc1ncc(Cl)c(NCCCN2CCCOCC2=O)n1` [Example 105], the IC50 in assay [1] lay within 100 to 300 nM.

For the molecule `Cc1nn(C2CCN(C)CC2)cc1Nc1ncc(C(F)(F)F)c(NCCCN2CCOCCC2=O)n1` [Example 127], the IC50 lay within 10 to 100 nM in assay [1] and 1 to 25 nM against ULK1 kinase.

Take `Cc1nn([C@@H]2CCN(C)C2)cc1Nc1ncc(C(F)(F)F)c(NCCCN2CCCCC2=O)n1` [Example 18]: in assay [1], the 50% inhibitory concentration (IC50) was 100 to 300 nM.

As for `Cc1nn(C2CCN(C(C)C)CC2)cc1Nc1ncc(C(F)(F)F)c(NCCCN2CCCOC2=O)n1` [Example 68], the values for the concentration for half-maximal inhibition (IC50) (in assay [1]; on ULK1 kinase) were 100 to 300 nM and 25 to 100 nM, respectively.

For `Cc1nn(C2CCN(C(C)C)CC2)cc1Nc1ncc(C(F)(F)F)c(NCCCN2CCCCC2=O)n1` [Example 15], in assay [1], the concentration for half-maximal inhibition (IC50) lay within 10 to 100 nM.

In the case of `CN(C)CCn1cc(Nc2ncc(C(F)(F)F)c(NCCCN3CCCCC3=O)n2)cn1` [Example 32], the concentration for half-maximal inhibition (IC50) in assay [1] lay in the range of 10 to 100 nM.

In the case of `Cc1nn(CCCN2CCOCC2)cc1Nc1ncc(C(F)(F)F)c(NCCCN2CCCCCC2=O)n1` [Example 100], in assay [1], the concentration for half-maximal inhibition (IC50) fell in the range of 100 to 300 nM.

Regarding `Cc1nn([C@H]2CCN(C)C2)cc1Nc1ncc(Br)c(NCCCN2CCCCC2=O)n1` [Example 61], at ULK1 kinase, the IC50 fell in the range of 25 to 100 nM.

`Cc1nn(C2CCN(C)CC2)cc1Nc1ncc(C(F)(F)F)c(NCCCN2CCCOCC2=O)n1` [Example 102] came in with an IC50 against ULK1 kinase of 1 to 25 nM.

`CCN1CC[C@H](n2cc(Nc3ncc(Br)c(NCCCN4CCCCC4=O)n3)c(C)n2)C1` [Example 64] registered an IC50 on LRRK2 kinase of 300 to 600 nM.

As a reminder, the IC50 is the concentration that gives 50% inhibition.
